The results in this text go back to patent US8486931B2, “Substituted oxindole compounds” (Abbott GmbH & Co. KG, priority 2007, dated 2013).

This assay addresses T1, human vasopressin V1b receptor (Homo sapiens, UniProt P47901).
T1 construct: expressed in transfected cells; host or cells: CHO-K1 (cell line hV1b-3H2_CHO), membrane preparation
T1 sequence (P47901 1-424): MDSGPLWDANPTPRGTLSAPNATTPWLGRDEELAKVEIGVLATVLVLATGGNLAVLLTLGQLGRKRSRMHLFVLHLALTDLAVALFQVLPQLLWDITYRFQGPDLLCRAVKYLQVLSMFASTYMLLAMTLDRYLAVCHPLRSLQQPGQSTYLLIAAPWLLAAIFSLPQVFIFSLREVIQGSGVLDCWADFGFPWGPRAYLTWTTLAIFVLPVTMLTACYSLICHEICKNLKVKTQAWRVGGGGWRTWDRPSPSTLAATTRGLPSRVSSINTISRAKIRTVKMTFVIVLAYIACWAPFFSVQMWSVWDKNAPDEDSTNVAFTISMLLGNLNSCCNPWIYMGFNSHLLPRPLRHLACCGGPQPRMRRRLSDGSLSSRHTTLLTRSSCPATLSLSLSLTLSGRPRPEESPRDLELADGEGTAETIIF
Kind of assay: Vasopressin V1b receptor binding assay. The settings on record: membranes from CHO-K1 cells with stably expressed human V1b receptors, 1.5 nM 3H-AVP displacement; with more than one stereogenic center: the diastereomer with stronger affinity. In short, it runs like this:
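Membranes bearing human V1b receptor incubated 60 min at room temperature in 50 mM Tris, 10 mM MgCl2, 0.1% BSA, pH 7.4, 2% DMSO, triplicate.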
Usually Ki stands for the dissociation constant of the complex between target and ligand, obtained from inhibition or displacement. For `COc1ccc(OC)c(C2(N3CCN(c4ccncc4)CC3)C(=O)N(S(=O)(=O)c3cccc4cccnc34)c3ccc(OC)cc32)c1` (racemic) [Example 59, (±)-3-(2,5-Dimethoxyphenyl)-5-methoxy-3-(4-pyridin-4-ylpiperazin-1-yl)-1-(quinoline-8-sulfonyl)-1,3-dihydroindol-2-one], the Ki is less than 10 nM.

With `CCOc1nc(Cl)ccc1C1(N2CC3CN(c4ccncc4)CC3C2)C(=O)N(S(=O)(=O)c2ccc(OC)cn2)c2ccc(C#N)cc21` (racemic) [Example 148, (±)-5-Cyano-3-(6-chloro-2-ethoxy-pyridin-3-yl)-1-(5-methoxy-pyridine-2-sulfonyl)-3-(5-pyridin-4-yl-hexahydro-pyrrolo[3,4-c]pyrrol-2-yl)-2,3-dihydro-1H-indol-2-one], the Ki lay in the range of 10 to 50 nM.

Compound `CCOc1cc(OC)ccc1C1(N2CCC(N3CCN(C)CC3)CC2)C(=O)N(S(=O)(=O)c2ccc(OC)cn2)c2ccc(C#N)cc21` (racemic) [Example 171, (±)-5-Cyano-3-(2-ethoxy-4-methoxy-phenyl)-1-(5-methoxy-pyridine-2-sulfonyl)-3-[4-(4-methyl-piperazin-1-yl)-piperidin-1-yl]-2,3-dihydro-1H-indol-2-one] returned a Ki of less than 10 nM.

Regarding `CCOc1nc(Cl)ccc1C1(N2CCN(c3ccnc(C(C)C)c3)CC2)C(=O)N(S(=O)(=O)c2ccc(OC)cn2)c2ccc(C#N)cc21` (racemic) [Example 167, (±)-5-Cyano-3-(6-chloro-2-ethoxy-pyridin-3-yl)-3-[4-(2-isopropyl-pyridin-4-yl)-piperazin-1-yl]-1-(5-methoxy-pyridine-2-sulfonyl)-2,3-dihydro-1H-indol-2-one], the Ki lay within 10 to 50 nM.

For `CCOc1ccc(OC)cc1C1(N2CCN(c3ccnc(C)c3)CC2)C(=O)N(S(=O)(=O)c2cccc3c(C)ccnc23)c2ccc(C#N)cc21` (racemic) [Example 18, (±)-5-Cyano-3-(2-ethoxy-5-methoxyphenyl)-3-[4-(2-methylpyridin-4-yl)piperazin-1-yl]-1-(4-methylquinoline-8-sulfonyl)-2,3-dihydro-1H-indol-2-one], the Ki is less than 10 nM.

In turn, `COc1ccc(C2(N3CCN(c4ccncc4)CC3)C(=O)N(S(=O)(=O)c3cccc4cccnc34)c3ccc(Cl)cc32)c(OC)c1` (racemic) [Example 1, (±)-5-Chloro-3-(2,4-dimethoxyphenyl)-3-(4-pyridin-4-ylpiperazin-1-yl)-1-(quinoline-8-sulfonyl)-1,3-dihydroindol-2-one] yielded a Ki of less than 10 nM.

`Cc1cccnc1C1(N2CCN(c3ccncc3)CC2)C(=O)N(S(=O)(=O)c2cccc3cccnc23)c2ccc(Cl)cc21` (racemic) [Example 9, (±)-5-Chloro-3-(3-methylpyridin-2-yl)-3-(4-pyridin-4-ylpiperazin-1-yl)-1-(quinoline-8-sulfonyl)-1,3-dihydroindol-2-one] had a Ki of 10 to 50 nM.

For `CCOc1ccc(C)cc1C1(N2CCN(c3ccnc(C)c3)CC2)C(=O)N(S(=O)(=O)c2ccc(OC)cn2)c2ccc(C#N)cc21` (racemic) [Example 180, (±)-5-Cyano-3-(2-ethoxy-5-methyl-phenyl)-1-(5-methoxy-pyridine-2-sulfonyl)-3-[4-(2-methyl-pyridin-4-yl)-piperazin-1-yl]-2,3-dihydro-1H-indol-2-one], the inhibition constant Ki is less than 10 nM.

Compound `CCOc1nc(Cl)ccc1C1(N2CCN(c3ccnc(C)c3)CC2)C(=O)N(S(=O)(=O)c2ccc(OC)cn2)c2ccc(C#N)cc21` (racemic) [Example 34, (±)-5-Cyano-3-(6-chloro-2-ethoxypyridin-3-yl)-1-(5-methoxypyridine-2-sulfonyl)-3-[4-(2-methylpyridin-4-yl)piperazin-1-yl]-2,3-dihydro-1H-indol-2-one] came in with a Ki of less than 10 nM.

Regarding `CCOc1cc(F)ccc1C1(N2CCN(c3ccncc3)CC2)C(=O)N(S(=O)(=O)c2ccc(OC)c3cccnc23)c2ccc(C#N)cc21` (racemic) [Example 31, (±)-5-Cyano-3-(2-ethoxy-4-fluorophenyl)-1-(5-methoxyquinoline-8-sulfonyl)-3-(4-pyridin-4-ylpiperazin-1-yl)-2,3-dihydro-1H-indol-2-one], the Ki lay in the range of 10 to 50 nM.

For `CCOc1nc(Cl)ccc1C1(N2CCN(c3ccncc3)CC2)C(=O)N(S(=O)(=O)c2cccc3cccnc23)c2ccc(C#N)cc21` (racemic) [Example 24, (±)-5-Cyano-3-(6-chloro-2-ethoxypyridin-3-yl)-3-(4-pyridin-4-ylpiperazin-1-yl)-1-(quinoline-8-sulfonyl)-2,3-dihydro-1H-indol-2-one], the Ki is less than 10 nM.

With `CCOc1ccc(OC)cc1C1(N2CCC(C3CCNCC3)CC2)C(=O)N(S(=O)(=O)c2ccc(OC)cn2)c2ccc(C#N)cc21` (racemic) [Example 181, (±)-5-Cyano-3-[4,4′]bipiperidinyl-1-yl-3-(2-ethoxy-5-methoxy-phenyl)-1-(5-methoxy-pyridine-2-sulfonyl)-2,3-dihydro-1H-indol-2-one], the Ki was less than 10 nM.

Take `CCOc1cc(F)ccc1C1(N2CCN(c3ccncc3)CC2)C(=O)N(S(=O)(=O)c2ccc(C)cn2)c2ccc(C#N)cc21` (racemic) [Example 49, (±)-5-Cyano-3-(2-ethoxy-4-fluorophenyl)-1-(5-methylpyridine-2-sulfonyl)-3-(4-pyridin-4-ylpiperazin-1-yl)-2,3-dihydro-1H-indol-2-one]: the Ki lay in the range of 10 to 50 nM.

Compound `CCOc1ccc(OC)cc1C1(N2CCN(C3CCNCC3)CC2)C(=O)N(S(=O)(=O)c2ccc(OC)cn2)c2ccc(C#N)cc21` (racemic) [Example 172, (±)-5-Cyano-3-(2-ethoxy-5-methoxy-phenyl)-1-(5-methoxy-pyridine-2-sulfonyl)-3-(4-piperidin-4-yl-piperazin-1-yl)-2,3-dihydro-1H-indol-2-one] had a Ki of less than 10 nM.

Take `CCOc1nc(Cl)ccc1C1(N2CCC(N3CCNCC3)CC2)C(=O)N(S(=O)(=O)c2ccc(OC)cn2)c2ccc(C#N)cc21` (racemic) [Example 182, (±)-5-Cyano-3-(6-chloro-2-ethoxy-pyridin-3-yl)-1-(5-methoxy-pyridine-2-sulfonyl)-3-(4-piperazin-1-yl-piperidin-1-yl)-2,3-dihydro-1H-indol-2-one]: the Ki is less than 10 nM.

On to `CCOc1ccccc1C1(N2CCN(c3ccncc3)CC2)C(=O)N(S(=O)(=O)c2ccc(OC)c3cccnc23)c2ccc(C#N)cc21` (racemic) [Example 25, (±)-5-Cyano-3-(2-ethoxyphenyl)-1-(5-methoxyquinoline-8-sulfonyl)-3-(4-pyridin-4-yl-piperazin-1-yl)-2,3-dihydro-1H-indol-2-one], for which the Ki was less than 10 nM.

Turning to `CCOc1nc(Cl)ccc1C1(N2CCN(C3CCNCC3)CC2)C(=O)N(S(=O)(=O)c2ccc(OC)cn2)c2ccc(C#N)cc21` (racemic) [Example 176, (±)-5-Cyano-3-(6-chloro-2-ethoxy-pyridin-3-yl)-1-(5-methoxy-pyridine-2-sulfonyl-3-(4-piperidin-4-yl-piperazin-1-yl)-2,3-dihydro-1H-indol-2-one], the Ki was less than 10 nM.

Compound `CCOc1nc(Cl)ccc1C1(N2CCN(c3ccnc(C)c3)CC2)C(=O)N(S(=O)(=O)c2cccc3cccnc23)c2ccc(C#N)cc21` (racemic) [Example 27, (±)-5-Cyano-3-(6-chloro-2-ethoxypyridin-3-yl)-3-[4-(2-methylpyridin-4-yl)-piperazin-1-yl]-1-(quinoline-8-sulfonyl)-2,3-dihydro-1H-indol-2-one] yielded a Ki of 10 to 50 nM.

`CCOc1ccccc1C1(N2CCN(c3ccncc3)CC2)C(=O)N(S(=O)(=O)c2ccc(OCC)c3cccnc23)c2ccc(C#N)cc21` (single isomer, unassigned; (+)) [Example 67, (+)-5-Cyano-3-(2-ethoxyphenyl)-1-(5-ethoxyquinoline-8-sulfonyl)-3-(4-pyridin-4-yl-piperazin-1-yl)-2,3-dihydro-1H-indol-2-one] came in with a Ki of 10 to 50 nM.

In turn, `CCOc1ccc(OC)cc1C1(N2CCN(c3ccnc(C4CC4)c3)CC2)C(=O)N(S(=O)(=O)c2cccc3cccnc23)c2ccc(C#N)cc21` (racemic) [Example 66, (±)-5-Cyano-3-[4-(2-cyclopropylpyridin-4-yl)piperazin-1-yl]-3-(2-ethoxy-5-methoxyphenyl)-1-(quinoline-8-sulfonyl)-2,3-dihydro-1H-indol-2-one] returned a Ki of less than 10 nM.

Consider `CCOc1ccc(OC)cc1C1(N2CCN(c3ccncc3)CC2)C(=O)N(S(=O)(=O)c2ccc(Cl)c3cccnc23)c2ccc(C#N)cc21` (racemic) [Example 48, (±)-5-Cyano-1-(5-chloroquinoline-8-sulfonyl)-3-(2-ethoxy-5-methoxyphenyl)-3-(4-pyridin-4-ylpiperazin-1-yl)-2,3-dihydro-1H-indol-2-one], for which the Ki is 10 to 50 nM.

`CCOc1ccc(OC)cc1C1(N2CC3CN(c4ccncc4)CC3C2)C(=O)N(S(=O)(=O)c2ccc(OC)c3cccnc23)c2ccc(C#N)cc21` (racemic) [Example 74, (±)-5-Cyano-3-(2-ethoxy-5-methoxyphenyl)-1-(5-methoxyquinoline-8-sulfonyl)-3-(5-pyridin-4-ylhexahydropyrrolo[3,4-c]pyrrol-2-yl)-2,3-dihydro-1H-indol-2-one] showed an inhibitory constant (Ki) of 10 to 50 nM.
